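Grown in 96-well plates, cells were treated for 48 hours with each compound at five concentrations. Insufficient inhibition: endpoint recorded as highest concentration tested. GI50 is the concentration that inhibits growth by half.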 The source made the active and inactive calls. No stated cut-off is given here; in the data, active = GI50 up to about 1.1 µM and inactive = higher. *1 amine or outer side, *2 acyl side, *3 side chain or, on linkers, in order; H or OH if unused. Where a SMILES comes first, the peptide text is derived from it. Bridges are numbered along the chain shown (N, C = ends). Roman numbers before positions name the chains, in order. [ ]: non-standard residue; d: D form. Actinocin(1to9) = Cc1c2oc3c(C)ccc(C(=O)[*:2])c3nc-2c(C(=O)[*:1])c(N)c1=O; NMeV = CN[CH](C(=O)O)C(C)C; Sar = CNCC(=O)O
Key:
Assay in all cases: growth of human tumour cells (NCI), 48 h
SW-620 = tested on: SW-620
SK-MEL-5 = tested on: SK-MEL-5
SF-268 = tested on: SF-268
Malme-3M = tested on: Malme-3M
RXF 393 = tested on: RXF 393
NCI/ADR-RES = tested on: NCI/ADR-RES
CCRF-CEM = tested on: CCRF-CEM
SR = tested on: SR
LOX IMVI = tested on: LOX IMVI
UACC-257 = tested on: UACC-257
SK-MEL-2 = tested on: SK-MEL-2
SK-OV-3 = tested on: SK-OV-3
HCC 2998 = tested on: HCC 2998
IGROV-1 = tested on: IGROV-1
COLO 205 = tested on: COLO 205
SN12C = tested on: SN12C
RPMI-8226 = tested on: RPMI-8226
MDA-N = tested on: MDA-N
TK-10 = tested on: TK-10
SNB-75 = tested on: SNB-75

| SMILES | GI50 (SW-620) | GI50 (SK-MEL-5) | GI50 (SF-268) | GI50 (Malme-3M) | GI50 (RXF 393) | GI50 (NCI/ADR-RES) | GI50 (CCRF-CEM) | GI50 (SR) | GI50 (LOX IMVI) | GI50 (UACC-257) | GI50 (SK-MEL-2) | GI50 (SK-OV-3) | GI50 (HCC 2998) | GI50 (IGROV-1) | GI50 (COLO 205) | GI50 (SN12C) | GI50 (RPMI-8226) | GI50 (MDA-N) | GI50 (TK-10) | GI50 (SNB-75) |
| --- | --- | --- | --- | --- | --- | --- | --- | --- | --- | --- | --- | --- | --- | --- | --- | --- | --- | --- | --- | --- |
| Cc1ccc(SC(=O)N2C(=S)N=C(NC3CCCCC3)C23CCCCC3)cc1 | > 100 µM (inactive) | > 100 µM (inactive) | > 100 µM (inactive) | > 100 µM (inactive) | 70 µM (inactive) | > 100 µM (inactive) | 29 µM (inactive) | 57.7 µM (inactive) | 95.5 µM (inactive) | 82.8 µM (inactive) | > 100 µM (inactive) | > 100 µM (inactive) | > 100 µM (inactive) | 36.1 µM (inactive) | 43.4 µM (inactive) | > 100 µM (inactive) | > 100 µM (inactive) | > 100 µM (inactive) | 25.2 µM (inactive) | 57.9 µM (inactive) |
| O=C(C(=O)n1ccc2ccccc21)c1c[nH]c2ccccc12 | > 10 µM (inactive) | > 10 µM (inactive) | > 10 µM (inactive) | > 10 µM (inactive) | > 10 µM (inactive) | > 10 µM (inactive) | > 10 µM (inactive) | > 10 µM (inactive) | > 10 µM (inactive) | > 10 µM (inactive) | > 10 µM (inactive) | > 10 µM (inactive) | > 10 µM (inactive) | > 10 µM (inactive) | > 10 µM (inactive) | > 10 µM (inactive) | > 10 µM (inactive) | > 10 µM (inactive) | > 10 µM (inactive) | > 10 µM (inactive) |
| CCC(C)C1NC(=O)C(NC(=O)c2c3nc4c(C(=O)NC5C(=O)NC(C(C)C)C(=O)N6CCCC6C(=O)N(C)CC(=O)N(C)C(C(C)C)C(=O)OC5C)ccc(C)c4oc-3c(C)c(=O)c2N)C(C)OC(=O)C(C(C)C)N(C)C(=O)CN(C)C(=O)C2CCCN2C1=O (stereo not given) (I: TIP[Sar][NMeV] / II: TVP[Sar][NMeV]; ester I:1-I:C, II:1-II:C; linker I:N-II:N via Actinocin(1to9); configuration not given here) | < 0.0001 µM (active) | < 0.0001 µM (active) | 0.000916 µM (active) | 0.000689 µM (active) | 0.01 µM (active) | 0.156 µM (active) | 0.000421 µM (active) | 0.000244 µM (active) | < 0.0001 µM (active) | 0.00119 µM (active) | 0.00172 µM (active) | 0.0152 µM (active) | 0.237 µM (active) | 0.00393 µM (active) | < 0.0001 µM (active) | 0.000388 µM (active) | < 0.0001 µM (active) | 0.000135 µM (active) | 0.0137 µM (active) | 0.00762 µM (active) |
| O=C(O)c1cc2ccc3ccccc3c2oc1=O | > 100 µM (inactive) | > 100 µM (inactive) | > 100 µM (inactive) | > 100 µM (inactive) | > 100 µM (inactive) | > 100 µM (inactive) | > 100 µM (inactive) | > 100 µM (inactive) | > 100 µM (inactive) | > 100 µM (inactive) | > 100 µM (inactive) | > 100 µM (inactive) | > 100 µM (inactive) | > 100 µM (inactive) | > 100 µM (inactive) | > 100 µM (inactive) | > 100 µM (inactive) | > 100 µM (inactive) | > 100 µM (inactive) | > 100 µM (inactive) |
| COC(=O)C(=O)C(C(=O)C(=O)Nc1cc(C)ccc1C)c1nc2ccccc2nc1O (stereo not given) | > 100 µM (inactive) | > 100 µM (inactive) | > 100 µM (inactive) | > 100 µM (inactive) | 77.3 µM (inactive) | > 100 µM (inactive) | 36.1 µM (inactive) | 30.3 µM (inactive) | > 100 µM (inactive) | > 100 µM (inactive) | > 100 µM (inactive) | > 100 µM (inactive) | > 100 µM (inactive) | 67 µM (inactive) | > 100 µM (inactive) | > 100 µM (inactive) | 19.6 µM (inactive) | > 100 µM (inactive) | > 100 µM (inactive) | > 100 µM (inactive) |
| CCn1c(SCc2nnc(Nc3ccccc3)s2)nc2ccccc2c1=O | 16.8 µM (inactive) | 8.15 µM (inactive) | 3.98 µM (inactive) | 1.46 µM (inactive) | 4.04 µM (inactive) | 2.59 µM (inactive) | 47.6 µM (inactive) | 23.7 µM (inactive) | 5.02 µM (inactive) | 11.8 µM (inactive) | 5.14 µM (inactive) | 2.62 µM (inactive) | 6.68 µM (inactive) | 3.62 µM (inactive) | 16.1 µM (inactive) | 4.23 µM (inactive) | 5.5 µM (inactive) | 8.77 µM (inactive) | 3.45 µM (inactive) | 3.85 µM (inactive) |
| [N-]=[N+]=Nc1ccc2c(c1)Sc1ccccc1N2CCCCN1CCN(Cc2ccc(C(=O)c3ccccc3)cc2)CC1 | 6.22 µM (inactive) | 2.13 µM (inactive) | 5.6 µM (inactive) | 1.95 µM (inactive) | 1.72 µM (inactive) | 3.68 µM (inactive) | 5.97 µM (inactive) | 3 µM (inactive) | 1.76 µM (inactive) | 2.04 µM (inactive) | 2.65 µM (inactive) | > 100 µM (inactive) | 2.13 µM (inactive) | > 22.3 µM (inactive) | 1.79 µM (inactive) | > 25.3 µM (inactive) | 3.86 µM (inactive) | 9.51 µM (inactive) | > 39.6 µM (inactive) | 4.32 µM (inactive) |
| Nc1ccc2c(c1)C(=O)N1CCC[C@H]1C(=O)N2 | > 100 µM (inactive) | > 100 µM (inactive) | > 100 µM (inactive) | > 100 µM (inactive) | > 100 µM (inactive) | > 100 µM (inactive) | 1.38 µM (inactive) | > 100 µM (inactive) | > 100 µM (inactive) | > 100 µM (inactive) | > 100 µM (inactive) | > 100 µM (inactive) | > 100 µM (inactive) | > 100 µM (inactive) | > 100 µM (inactive) | > 100 µM (inactive) | > 100 µM (inactive) | > 100 µM (inactive) | > 100 µM (inactive) | > 100 µM (inactive) |
| CC1OC2=N[C@@H]1C(=O)N[C@@H](C(C)C)C1=N[C@H](C(=O)N[C@@H](C(C)C)C3=N[C@H](C(=O)N[C@@H](C(C)C)C4=N[C@H](C(=O)N[C@H]2C(C)C)C(C)O4)C(C)O3)C(C)O1 (stereo not given in full) | > 10 µM (inactive) | > 10 µM (inactive) | > 10 µM (inactive) | > 10 µM (inactive) | > 10 µM (inactive) | > 10 µM (inactive) | > 10 µM (inactive) | > 10 µM (inactive) | > 10 µM (inactive) | > 10 µM (inactive) | > 10 µM (inactive) | > 10 µM (inactive) | > 10 µM (inactive) | > 10 µM (inactive) | > 10 µM (inactive) | > 10 µM (inactive) | > 10 µM (inactive) | > 10 µM (inactive) | > 10 µM (inactive) | > 10 µM (inactive) |

Reference: ChEMBL document CHEMBL1201862, “PubChem BioAssay data set” (2004)
